Assay results: patent publication US20090075915A1, “6,11-BICYCLOLIDES: BRIDGED BIARYL MACROLIDE DERIVATIVES” (priority 2007, published 2009)
In brackets after ≈: the same amount, converted by molar mass. Entries after “also recorded” stand apart in the source; their conditions may differ. Like-named read-outs stand apart in the source and are kept apart here.

How the values were obtained:
[1] = In vitro blood incubation of amino acid prodrugs, mouse blood; assay type: in vitro ADME, Mice; details: 2 μM prodrug
Procedure: (§1) Compounds 5, 6, 7 and 8 (2 μM) were incubated with fresh human blood (conducted in duplicate), rat and mouse blood. Reaction was started by the addition of compound 5, and was stopped at predefined time points (0, 5, 10, 15, 30, 45 and 60 minutes) by removing one aliquot from the incubation mixture (0.1 mL per aliquot) and adding it to 3-fold volume of stop reagent (ice-cold acetonitrile, 0.3 mL). Precipitated protein was removed by centrifugation. Prodrug compound 5-8 and parent compound 1 or 3 concentrations in the supernatant were analyzed by LC/MS/MS.

[2] = In vitro blood incubation of amino acid prodrugs, rat blood; assay type: in vitro ADME; details: 2 μM prodrug
Procedure: as §1

[3] = In vitro blood incubation of amino acid prodrugs, fresh human blood; assay type: in vitro ADME; details: 2 μM prodrug
Procedure: as §1

[4] = Rat PK of amino acid prodrug after IV/PO administration; assay type: in vivo
H influenzae 33929 = test: MIC, H influenzae 33929; assay type: cell-based, Haemophilus influenzae; details: Haemophilus influenzae, 33929; Table 5
Procedure: (§2) Susceptibility tests can be used to quantitatively measure the in vitro activity of an antimicrobial agent against a given bacterial isolate. Compounds are tested for in vitro antibacterial activity by a micro-dilution method. Minimal Inhibitory Concentration (MIC) is determined in 96 well microtiter plates utilizing the appropriate broth medium for the observed bacterial isolates. Antimicrobial agents are serially diluted (2-fold) in DMSO to produce a concentration range from about 64 μg/ml to about 0.03 μg/ml. The diluted compounds (2 μl/well) are then transferred into sterile, uninoculated medium (0.2 mL) by use of a 96 fixed tip-pipetting station. The inoculum for each bacterial strain is standardized to approximately 5×10^5 CFU/mL by optical comparison to a 0.5 McFarland turbidity standard. The plates are inoculated with 10 μl/well of adjusted bacterial inoculum. The 96 well plates are covered and incubated at 35±2° C. for 24 hours in ambient air environment. Following incubation, plate wells are visually examined by Optical Density measurement for the presence of growth (turbidity). The lowest concentration of an antimicrobial agent at which no visible growth occurs is defined as the MIC.
(§3) All in vitro testing follows the guidelines described in the Approved Standards M7-A7 protocol, published by the Clinical Laboratory Standards Institute (CLSI).

H influenzae 49247 = test: MIC, H influenzae 49247; assay type: cell-based, Haemophilus influenzae; details: Haemophilus influenzae, 49247; Table 5
Procedure: as §2, §3

S. aureus Smith [5] = test: MIC, S. aureus Smith; assay type: cell-based, Staphylococcus aureus
Procedure: as §2, §3

S. aureus Smith [6] = test: Systemic mouse protection model (MPT), S. aureus Smith; assay type: in vivo; details: Staphylococcus aureus
S. pneumoniae 7701 [7] = test: MIC, S. pneumoniae 7701; assay type: cell-based
Procedure: as §2, §3

H. influenzae 1435 [8] = test: MIC, H. influenzae 1435; assay type: cell-based, Haemophilus influenzae; design: unit not given beside the values
Procedure: as §2, §3

H. influenzae S1280 [9] = test: MIC, H. influenzae S1280; assay type: cell-based, Haemophilus influenzae; design: unit not given beside the values
Procedure: as §2, §3

H. influenzae 3643 [10] = test: MIC, H. influenzae 3643; assay type: cell-based, Haemophilus influenzae; design: unit not given beside the values
Procedure: as §2, §3

S. pneumoniae 7701 [11] = test: Mouse protection test model (MPT), S. pneumoniae 7701; assay type: in vivo; details: Streptococcus pneumoniae
H. influenzae 1435 [12] = test: Rat lung infection model (RLI), H. influenzae 1435; assay type: in vivo; details: Haemophilus influenzae, read-out: ED50 (2Log Red for RLI)
H. influenzae S1280 [13] = test: Rat lung infection model (RLI), H. influenzae S1280; assay type: in vivo; details: Haemophilus influenzae, read-out: ED50 (2Log Red for RLI)
H. influenzae 3643 [14] = test: Rat lung infection model (RLI), H. influenzae 3643; assay type: in vivo; details: Haemophilus influenzae, read-out: ED50 (2Log Red for RLI)
[15] = Oral pharmacokinetics in mice; assay type: in vivo; details: 15 mg/kg
[16] = Oral pharmacokinetics in rat; assay type: in vivo; details: 10 mg/kg
[17] = Oral pharmacokinetics in dog; assay type: in vivo; details: for Cmax / Tmax / half-life / AUC(0-t): in vivo; for Cmax / Tmax / half-life / AUC(0-t) / CLF / F / Vd: oral, Dog; for AUC(0-t): read-out: AUC0-24
[18] = Oral pharmacokinetics in rat plasma and lung tissue; assay type: in vivo; details: 10 mg/kg PO; for AUC(0-t): read-out: AUC0-24; for Kp: lung/plasma, po, 10 mg/kg
MRSA 33591 = test: MIC, MRSA 33591; assay type: cell-based, Staphylococcus aureus; details: Staphylococcus aureus, MRSA; Table 5
Procedure: as §2, §3

MRSA 7662 [19] = test: MIC, MRSA 7662; assay type: cell-based; details: Staphylococcus aureus
Procedure: as §2, §3

S. aureus 7662 = test: Systemic mouse protection model, S. aureus 7662; assay type: in vivo; details: Staphylococcus aureus, S. aureus 7662, iv
MRSA 7662 [20] = test: Mouse skin and soft tissue infection, MRSA 7662; assay type: in vivo; details: Staphylococcus aureus
[21] = Tissue accumulation at the site of infection (plasma, skin, skin abscess); details: for AUC(0-inf) / AUC(0-t) / Cmax / Kp / Tmax / half-life: mouse, po, 50 mg/kg
[22] = plasma, 10 mg/kg IV, prodrug itself measured

With CCC(=O)/N=C1\[C@H](C)C[C@@]2(C)OC/C(=N/OCc3ccc(-c4nc(NC(=O)[C@@H](N)CC(C)C)cs4)cn3)CO[C@H]([C@H]1C)[C@](C)(O)[C@@H](CC)OC(=O)[C@@](C)(F)C(=O)[C@H](C)[C@H]2O[C@@H]1O[C@H](C)C[C@H](N(C)C)[C@H]1O [Compound 6] the “% remaining after 60 min, Mice” value [1] was 5.6%, the “% remaining after 60 min, Rat” value [2] was 9.3% and the “% remaining after 60 min, Human” value [3] was 8.3%. For the same molecule, the ClF ([4]; 10 mg/kg IV, prodrug itself measured) was 788 mL/min/kg, the “Prodrug in plasma after oral administration” value ([4]; 10 mg/kg PO, prodrug itself, 10 mg/kg) was “No prodrug was detected in the plasma; also recorded: None detected in plasma via oral route-” and the “Conversion to the parent amino derivative (Compound 1)” value ([4]; after oral (po) and IV administration) was “rapidly converted to the parent amino derivative”. It also gave an AUC(0-inf) [4, 22] of 210 ng·h/mL, a Cmax [4, 22] of 310 ng/mL and a Tmax [4, 22] of 4.8 min. The Vd [4, 22] was 13.3 L/kg and the half-life [4, 22] was 0.2 h.

With CC[C@H]1OC(=O)[C@H](C)C(=O)[C@H](C)[C@@H](O[C@@H]2O[C@H](C)C[C@H](N(C)C)[C@H]2O)[C@@]2(C)C[C@@H](C)/C(=N\C(C)=O)[C@H](C)[C@@H](OC/C(=N\OCc3ccc(-c4ccno4)nc3)CO2)[C@]1(C)O [Compound 4] the MIC (H influenzae 33929) was 4 µg/mL (≈ 4.75 µM), the MIC (H influenzae 49247) was 4 µg/mL (≈ 4.75 µM) and the MIC (S. aureus Smith [5]; table of animal models of infection) was 0.25. For the same molecule, the ED50 (S. aureus Smith [6]; MPT) was 9 mg/kg, the MIC (S. pneumoniae 7701 [7]) was “<=0.06” and the MIC (H. influenzae 1435 [8]) was 4. The MIC (H. influenzae S1280 [9]) was 8, the MIC (H. influenzae 3643 [10]) was 16 and the ED50 (S. pneumoniae 7701 [11]) was 9 mg/kg. For the same molecule, the ED50 (H. influenzae 1435 [12]) was 33 mg/kg, the ED50 (H. influenzae S1280 [13]) was 46 mg/kg and the ED50 (H. influenzae 3643 [14]) was 64 mg/kg. For the same molecule, the CLF [15] was 26.7 mL/min/kg, the F [15] was 100% and the Vd [15] was 6.8 L/kg. For the same molecule, the Cmax ([15]; mouse, in vivo) was 2430 ng/mL, the Tmax ([15]; mouse, in vivo) was 0.5 h and the half-life ([15]; mouse, in vivo) was 2.4 h. It also gave an AUC(0-t) ([15]; mouse, in vivo, read-out: AUC0-24) of 9800 ng·h/mL, a CLF [16] of 10.7 mL/min/kg and an F [16] of 87%. The Vd [16] was 1.97 L/kg, the Cmax ([16]; plasma) was 2540 ng/mL and the Tmax ([16]; plasma) was 1.7 h. For the same molecule, the half-life ([16]; plasma) was 2.1 h, the AUC(0-t) ([16]; plasma, read-out: AUC0-24) was 13900 ng·h/mL and the “Animal pharmacokinetics properties in dogs” value ([17]; dogs) was “low clearance, excellent oral absorption (bioavailability) and AUC”. It also gave a Cmax ([17]; 5 mg/kg) of 2470 ng/mL, a Tmax ([17]; 5 mg/kg) of 1.3 h and a half-life ([17]; 5 mg/kg) of 7.3 h. The AUC(0-t) ([17]; 5 mg/kg) was 32600 ng·h/mL, the Cmax ([17]; 10 mg/kg) was 5040 ng/mL and the Tmax ([17]; 10 mg/kg) was 6 h. For the same molecule, the half-life ([17]; 10 mg/kg) was 15.8 h, the AUC(0-t) ([17]; 10 mg/kg) was 84400 ng·h/mL and the CLF ([17]; 5 mg/kg) was 1.67 mL/min/kg. It also gave an F ([17]; 5 mg/kg) of 71%, a Vd ([17]; 5 mg/kg) of 1.0 L/kg and a CLF ([17]; 10 mg/kg) of 1.67 mL/min/kg. It also gave an F ([17]; 10 mg/kg) of 100%, a Vd ([17]; 10 mg/kg) of 1.54 L/kg and a Cmax ([18]; Lung) of 19000 ± 80 ng/mL. The Tmax ([18]; Lung) was 2.33 ± 1.15 h, the half-life ([18]; Lung) was 2.51 ± 0.1 h and the AUC(0-t) ([18]; Lung) was 110000 ± 12900 ng·h/mL. It also gave a Cmax ([18]; Plasma) of 2540 ± 80 ng/mL, a Tmax ([18]; Plasma) of 1.67 ± 1.15 h and a half-life ([18]; Plasma) of 2.06 ± 0.45 h. It also gave an AUC(0-t) ([18]; Plasma) of 13900 ± 2810 ng·h/mL, a Kp ([18]; read-out: AUC Lung/Plasma) of 8 ± 0.9 and a Kp ([18]; read-out: Cmax Lung/plasma) of 7.5 ± 1.

CCC(=O)/N=C1\[C@H](C)C[C@@]2(C)OC/C(=N/OCc3ccc(-c4nc(N)cs4)cn3)CO[C@H]([C@H]1C)[C@](C)(O)[C@@H](CC)OC(=O)[C@@](C)(F)C(=O)[C@H](C)[C@H]2O[C@@H]1O[C@H](C)C[C@H](N(C)C)[C@H]1O [Compound 1] gave an MIC (MRSA 33591) of 2 µg/mL (≈ 2.21 µM), an MIC (MRSA 7662 [19]; S. aureus 7662, table of systemic mouse protection model, read-out: MIC) of 1000 µg/mL (≈ 1100 µM) and an MIC (MRSA 7662 [19]; Table 5, read-out: MIC MRSA 7662) of 1 µg/mL (≈ 1.1 µM). It also gave an MIC (H influenzae 33929) of 4 µg/mL (≈ 4.42 µM), an MIC (H influenzae 49247) of 4 µg/mL (≈ 4.42 µM) and an MIC (S. aureus Smith [5]; Staphylococcus aureus, table of systemic mouse protection model, read-out: MIC) of 130 µg/mL (≈ 144 µM). It also gave an ED50 (S. aureus Smith [6]; systemic mouse protection model, iv) of 4.8 mg/kg, an ED50 (S. aureus Smith [6]; systemic mouse protection model, po) of 13.3 mg/kg and an ED50 (S. aureus 7662) of 3.6 mg/kg. The ED50 (MRSA 7662 [20]; MRSA 7662, iv) was 12 mg/kg, the ED50 (MRSA 7662 [20]; MRSA 7662, po) was 29 mg/kg and the “Accumulation at the site of infection” value ([21]; infected skin tissue of mice) was “highly accumulated at the site of infections in infected skin tissue of mice”. For the same molecule, the AUC(0-inf) ([21]; infected skin abscess) was 617000 ng·h/mL, the AUC(0-t) ([21]; infected skin abscess) was 257000 ng·h/mL and the Cmax ([21]; infected skin abscess) was 9030 ng/mL. For the same molecule, the Kp ([21]; infected skin abscess) was 25.2, the Tmax ([21]; infected skin abscess) was 3 h and the half-life ([21]; infected skin abscess) was 52.4 h. For the same molecule, the AUC(0-inf) ([21]; plasma) was 24500 ng·h/mL, the AUC(0-t) ([21]; plasma) was 24400 ng·h/mL and the Cmax ([21]; plasma) was 5120 ng/mL. For the same molecule, the Tmax ([21]; plasma) was 0.5 h, the half-life ([21]; plasma) was 5.2 h and the AUC(0-inf) ([21]; uninfected skin) was 66600 ng·h/mL. The AUC(0-t) ([21]; uninfected skin) was 54600 ng·h/mL, the Cmax ([21]; uninfected skin) was 3800 ng/mL and the Kp ([21]; uninfected skin) was 2.72. It also gave a Tmax ([21]; uninfected skin) of 3 h and a half-life ([21]; uninfected skin) of 17.9 h.
